Test results published in US20250000874A1, “BACTERIAL METABOLITES AND THEIR USE IN REDUCING INFLAMMATION” (LOYOLA UNIVERSITY OF CHICAGO, priority 2023, published 2025).

How the values were obtained:
[1] = system: THP-1 macrophages; assay: Metabolites on LPS-stimulated TNFα/IL-6 production, THP-1 macrophages; type: cell-based, human; conditions: for IL-6 expression (FIG. 6): 10 μM JE, 10 μM MQ, 50 μM NC or combinations, 16 hours, 200 ng/ml LPS three hours; for LPS-stimulated macrophage production of IL-6 / LPS-stimulated macrophage production of TNFa: 10 or 50 μM, 16 hours pre-treatment, 200 ng/mL LPS 3 hours, ELISA
Experimental: (§1) FIG. 5A-C. Bacteria metabolites (MQ, JE, and NC) reduce expression of pro-inflammatory cytokines. Mouse macrophages cells, (FIG. 5A, FIG. 5B) Human Corneal Epithelial Cells (FIG. 5C) or THP-1 macrophages (FIG. 5D) were pre-treated with either 10 μM (3.5 μg/mL), 50 μM (17 μg/mL) of JE, 10UM (4.9 μg/mL), 50 μM (24 μg/mL) of MQ or combination of both for 16 hours, followed by 200 ng/mL of LPS to Mouse macrophages/THP1 cells, and 100 ng/ml of Flagellum to HCECs for 3 hours. The supernatants were collected and TNFα, IL-6 concentration was measured by ELISA. *, P<0.05, **. P<0.01, ***, P<0.001.
FIG. 6. Bacteria metabolites (MQ, JE, and NC) reduce IL-6 expression. THP-1 macrophages were pre-treated with either 10 μM (3.5 μg/mL) of JE, 10 μM (4.9 μg/mL) of MQ or 50UM of NC or different combinations of all three for 16 hours, followed by 200 ng/ml of LPS for three hours. Supernatants were collected and IL-6 concentration was measured by ELISA. **. P<0.01.
(§2) Next, the metabolites were tested individually to assess their regulatory effects on mouse macrophages and human THP-1 macrophages. Similar to the bacterial <10 kD supernatant fraction, both JE and MQ inhibited LPS-stimulated macrophage production of TNFa and IL-6 (FIG. 5), indicating it suppresses TLR4 agonist-induced production of pro-inflammatory cytokines by macrophages.
(§3) Cell Culture: Multiple macrophage cell lines were used in these experiments. Primary murine BMDMs were differentiated through isolation and treatment with L929 conditioned medium. C57BL/6 macrophages and BMDMs were seeded in complete DMEM (10% FBS+1% Penicillin-Streptomycin) in 24-well plates at concentrations of 5×10^5 and 2.5×10^5, respectively. THP-1 cells were maintained and grown in complete RPMI-1640 medium. Cells were differentiated by stimulating with PMA (100 nM) for three hours at 37° C. with 5% CO-2 until adherent. They were then collected and plated at a density of 2.5×10^5 cells per well in 24-well plates with serum-free RPMI and incubated overnight.

[2] = system: CACO-2 epithelium cells / B6 Macrophages; assay: CACO-2 trans-well system with macrophages in lower well, metabolites JE, MQ, NC; type: cell-based; conditions: for ability to cross the tight junctions of epithelial cells: 50 μM in upper well on CACO-2 cells, overnight; for TNFα production by cells in lower chamber: 50 μM in upper well overnight, 200 ng/ml LPS 3 hours
Experimental: FIG. 8A-8B. The assessment of the permeability of the differentiated CACO-2 epithelium cells after the treatment of JE, MQ, and NC in trans-well system. (FIG. 8A) CACO-2 cells were seeded in the upper well, and B6 Macrophages were placed into the lower well. 50UM of JE, MQ, NC, or combination of all three was added to CACO-2 cells in the upper well. Samples and controls were incubated overnight at 37° C., 5% CO2, followed by the addition of 200 ng/ml LPS to the upper and lower wells for 3 hours (Left: lower chambers, right: upper chambers). Cell culture supernatants were collected and an ELISA was used to measure TNFα or IL-6 concentrations. (FIG. 8B) FitC-dextrans (4 KDa) were added into the upper chamber simultaneously as the sample tests were added. A high concentration of hydrochloric acid (HCl) as a control was added to the upper chamber to disrupt the tight junctions. FitC-dextran collected from the bottom chamber was measured by a fluorescence spectrometer (excitation, 490 nm; emission, 520 nm). Data shown are representative mean±s.d. (***, p<0.001, **, p<0.01).
As stated before, commensal bacteria are non-invading and the metabolites must be able to cross the epithelium to mediate their functions and our earlier data confirmed <10 kD fraction pertained this ability. Therefore, we used the trans-well system to test if the identified metabolites were able to cross the epithelium. As we did previously, Caco-2 cells were culture for 2 weeks, to allow tight junctions to form. While the lower chamber contained C57BL/6 mouse BMDMs. We then measured the ability for NC, MQ and JE to cross the tight junctions without disrupting the integrity of the tight junctions. We did each separately and combined as well.

[3] = system: Mouse macrophages; assay: Metabolites on LPS-stimulated TNFα/IL-6 production, mouse macrophages; type: cell-based; conditions: 10 or 50 μM, 16 hours pre-treatment, 200 ng/mL LPS 3 hours, ELISA
Experimental: as §1, §2, §3

[4] = system: NLRP3 inflammasome; assay: Metabolites on IL-1β production after LPS priming and ATP, murine macrophages; type: cell-based, mouse; conditions: 10 or 50 μM 16 hours, 200 ng/ml LPS three hours, 5 mM ATP one hour
Experimental: (§4) FIG. 7A-7B. Bacteria metabolites (MQ and JE) reduce IL-1β expression. Murine macrophages, (FIG. 7A) or THP-1 macrophages (FIG. 7B) were pre-treated with either 10 μM (3.5 μg/mL), 50 μM (17 μg/mL) of JE, 10 μM (4.9 μg/mL), 50 μM (24 μg/mL) of MQ or combination of both for 16 hours. Macrophages were primed with 200 ng/ml of LPS for three hours, followed by inflammasome activation with 5 mM ATP for one hour. Supernatants were collected, IL-1B was measured by ELISA. ***, P<0.001
as §2

[5] = system: NLRP3 inflammasome; assay: Metabolites on IL-1β production after LPS priming and ATP, THP-1 macrophages; type: cell-based, human; conditions: 10 or 50 μM 16 hours, 200 ng/ml LPS three hours, 5 mM ATP one hour
Experimental: as §4, §2

Row | Compound | IL-6 expression (FIG. 6) [1] | ability to cross the tight junctions of epithelial cells [2] | TNFα production by cells in lower chamber [2] | LPS-stimulated macrophage production of IL-6 [3] | LPS-stimulated macrophage production of TNFa [3] | LPS-stimulated macrophage production of IL-6 [1] | LPS-stimulated macrophage production of TNFa [1] | IL-β production stimulated by LPS and ATP [4] | IL-β production stimulated by LPS and ATP [5]
1 | CCCCCCCCCCCCCCCC(=O)N[C@@H](C(=O)O)[C@H](C)O [NC, N-Palmitoyl-D-Threonine] | reduce | can pass through | suppress | – | – | – | – | – | –
2 | Prednicarbate [MQ] | reduce | can pass through | suppress | inhibited | inhibited | inhibited | inhibited | inhibited | inhibited
3 | CC(=O)O[C@@H]1CC[C@H]2[C@H]3CC[C@H]4CC(F)(F)CC[C@]4(C)[C@H]3CC[C@]12C [JE, 3,3-Difluoro-5-alpha-androstan-17-beta-yl acetate] | reduce | – | suppress | inhibited | inhibited | inhibited | inhibited | inhibited | inhibited
